By pIC50 is commonly meant −log10 of the IC50, conventionally taken in molar units. What is called pKi is the Ki on a negative log10 scale, so that one unit is a factor of ten. Low values mean a high Ki, high ones a low Ki.

Molecules are shown by their SMILES. pIC50, pKi: −log10 of the molar value. Square brackets hold non-standard residues; d marks the D form. Peptide text beside a SMILES is read from it. * marks the point of attachment. X3 = c1ccc(-c2cn(CC3CCCCC3)c([C@@H]3CCCN3*)n2)cc1; X2 = CC(C)n1cc(-c2ccccc2)nc1[C@@H]1CCCN1*; X1 = CCn1cc(-c2ccccc2)nc1[C@@H]1CCCN1*; 1Nal = N[C@@H](Cc1cccc2ccccc12)C(=O)O; 2Nal = N[C@@H](Cc1ccc2ccccc2c1)C(=O)O; X4 = Cn1cc(-c2ccccc2)nc1[C@@H]1CCCN1*; Ala(cPent) = N[C@@H](CC1CCCC1)C(=O)O; Gly(cPent) = N[C@H](C(=O)O)C1CCCC1; Cha = N[C@@H](CC1CCCCC1)C(=O)O; Chg = N[C@H](C(=O)O)C1CCCCC1; Orn = NCCC[C@H](N)C(=O)O; Dap = NC[C@H](N)C(=O)O

Test [1] has as its target T1, Protein AF-9 (Homo sapiens, UniProt P42568).
T1 sequence (P42568 whole entry): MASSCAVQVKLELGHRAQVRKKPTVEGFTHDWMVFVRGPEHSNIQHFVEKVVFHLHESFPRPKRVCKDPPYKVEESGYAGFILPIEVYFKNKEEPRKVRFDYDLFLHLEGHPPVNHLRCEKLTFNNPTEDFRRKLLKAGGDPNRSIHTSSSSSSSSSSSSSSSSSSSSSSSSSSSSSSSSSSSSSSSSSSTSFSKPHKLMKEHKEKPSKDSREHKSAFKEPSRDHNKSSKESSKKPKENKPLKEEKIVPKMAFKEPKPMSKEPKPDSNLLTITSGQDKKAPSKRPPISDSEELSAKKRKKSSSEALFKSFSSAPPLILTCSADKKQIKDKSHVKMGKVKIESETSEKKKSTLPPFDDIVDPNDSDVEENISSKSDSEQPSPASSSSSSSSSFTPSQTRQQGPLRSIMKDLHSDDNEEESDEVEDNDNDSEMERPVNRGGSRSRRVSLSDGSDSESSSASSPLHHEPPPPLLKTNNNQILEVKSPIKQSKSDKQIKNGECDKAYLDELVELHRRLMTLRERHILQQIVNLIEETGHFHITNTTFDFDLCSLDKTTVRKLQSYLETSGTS
The test is described as follows: Displacement of N-Flu-DOT1L from MBP-tagged AF9 (unknown origin) (487 to 568 residues) expressed in Escherichia coli BL21(DE3) measured after 3 hrs by fluorescence polarization assay. (In fluorescence polarisation assays a small probe gives low polarisation when free and higher when bound to something large.)

The target in test [2] is T2, Protein ENL (Homo sapiens, UniProt Q03111).
T2 sequence (Q03111 whole entry): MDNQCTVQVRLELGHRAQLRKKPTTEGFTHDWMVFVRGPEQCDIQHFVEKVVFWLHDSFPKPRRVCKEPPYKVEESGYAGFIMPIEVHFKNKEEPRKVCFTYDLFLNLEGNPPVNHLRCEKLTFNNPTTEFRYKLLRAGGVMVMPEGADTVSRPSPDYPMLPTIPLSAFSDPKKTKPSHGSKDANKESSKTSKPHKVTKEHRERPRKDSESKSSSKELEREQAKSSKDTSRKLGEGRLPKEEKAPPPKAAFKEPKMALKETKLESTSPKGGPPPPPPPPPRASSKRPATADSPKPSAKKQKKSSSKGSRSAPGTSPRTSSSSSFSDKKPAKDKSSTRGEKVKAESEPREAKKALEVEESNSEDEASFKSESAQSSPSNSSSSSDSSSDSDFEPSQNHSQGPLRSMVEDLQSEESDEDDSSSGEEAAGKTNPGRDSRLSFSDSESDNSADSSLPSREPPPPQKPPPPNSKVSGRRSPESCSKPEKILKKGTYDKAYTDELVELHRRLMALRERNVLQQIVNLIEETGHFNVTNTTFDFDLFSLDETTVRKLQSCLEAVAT
Kind of test: Displacement of N-Flu-DOT1L from MBP-tagged ENL (unknown origin) (489 to 559 residues) expressed in Escherichia coli BL21(DE3) measured after 3 hrs by fluorescence polarization assay.

In test [1], `CC[C@H](C)[C@H](NC(=O)[C@H](CO)NC(=O)[C@H](Cc1ccccc1)NC(=O)[C@@H]1CCCN1C(=O)[C@H](CC(C)C)NC(C)=O)C(=O)N1CCC[C@H]1C(=O)N[C@@H](CC(C)C)C(=O)N(C)C` (Ac-LPFSIPL-NMe2) gave a pIC50 of 4.52 and a negative logarithm of the Ki (pKi) of 5.25. In test [2], this compound had a pIC50 of 3.75 and a pKi of 4.21.

Consider `CC[C@H](C)[C@H](NC(=O)[C@@H]1CCCN1C(=O)[C@H](CC(C)C)NC(C)=O)C(=O)N[C@@H](CO)C(=O)N[C@@H](Cc1ccccc1)C(=O)N1CCC[C@H]1C(=O)N[C@@H](CC(C)C)C(=O)N(C)C` (Ac-LPISFPL-NMe2), for which the pIC50 in test [1] was 5.78; in test [2], 4.64. Further, the pKi is 6.55 in test [1] and 5.11 in test [2].

Consider `CC[C@H](C)[C@H](NC(=O)[C@@H]1CCCN1C(=O)[C@H](CC(C)C)NC(C)=O)C(=O)N[C@@H](CO)C(=O)N[C@H](C(=O)N1CCC[C@H]1C(=O)N[C@@H](CC(C)C)C(=O)N(C)C)[C@@H](C)CC` (Ac-LPISIPL-NMe2), for which the pIC50 is 5.75 in test [1] and 5.17 in test [2]. The figures for the pKi in test [1] and in test [2] were 6.52 and 5.67, respectively.

As for `CC[C@H](C)[C@H](NC(=O)[C@@H]1CCCN1C(=O)[C@H](CC(C)C)NC(C)=O)C(=O)N[C@@H](CO)C(=O)N[C@@H](CC(C)C)C(=O)N1CCC[C@H]1C(=O)N[C@@H](CC(C)C)C(=O)N(C)C` (Ac-LPISLPL-NMe2), in test [1], the pIC50 is 5.33 and the pKi is 6.08. In test [2], this compound had a pIC50 of 4.73 and a pKi of 5.20.

For `CC[C@H](C)[C@H](NC(=O)[C@@H]1CCCN1C(=O)[C@H](CC(C)C)NC(C)=O)C(=O)N[C@@H](CO)C(=O)N[C@@H](Cc1c[nH]c2ccccc12)C(=O)N1CCC[C@H]1C(=O)N[C@@H](CC(C)C)C(=O)N(C)C` (Ac-LPISWPL-NMe2), in test [1], the pIC50 is 5.63 and the pKi is 6.39. Further, in test [2], the pIC50 is 5.13 and the pKi was 5.63.

In test [1], `CC[C@H](C)[C@H](NC(=O)[C@@H]1CCCN1C(=O)[C@H](CC(C)C)NC(C)=O)C(=O)N[C@@H](CO)C(=O)N[C@@H](Cc1cccc2ccccc12)C(=O)N1CCC[C@H]1C(=O)N[C@@H](CC(C)C)C(=O)N(C)C` (Ac-LPIS[1Nal]PL-NMe2) had a pIC50 of 4.85 and a negative logarithm of the Ki (pKi) of 5.59. Further, in test [2], the pIC50 is 4.24 and the pKi was 4.70.

As to `CC[C@H](C)[C@H](NC(=O)[C@@H]1CCCN1C(=O)[C@H](CC(C)C)NC(C)=O)C(=O)N[C@@H](CO)C(=O)N[C@@H](Cc1ccc2ccccc2c1)C(=O)N1CCC[C@H]1C(=O)N[C@@H](CC(C)C)C(=O)N(C)C` (Ac-LPIS[2Nal]PL-NMe2), in test [1], the pIC50 was 5.39 and the pKi is 6.14. In test [2], this compound had a pIC50 of 4.37 and a pKi of 4.84.

On to `CC[C@H](C)[C@H](NC(=O)[C@@H]1CCCN1C(=O)[C@H](CC(C)C)NC(C)=O)C(=O)N[C@@H](CO)C(=O)N[C@@H](CC1CCCC1)C(=O)N1CCC[C@H]1C(=O)N[C@@H](CC(C)C)C(=O)N(C)C` (Ac-LPIS[Ala(cPent)]PL-NMe2), for which the results for the pIC50 in test [1] and in test [2] were 6.07 and 5.66, respectively. Besides, the pKi was 6.89 in test [1] and 6.29 in test [2].

Take `CC[C@H](C)[C@H](NC(=O)[C@@H]1CCCN1C(=O)[C@H](CC(C)C)NC(C)=O)C(=O)N[C@@H](CO)C(=O)N[C@@H](CC1CCCCC1)C(=O)N1CCC[C@H]1C(=O)N[C@@H](CC(C)C)C(=O)N(C)C` (Ac-LPIS[Cha]PL-NMe2): in test [1], the pIC50 was 5.94 and the pKi is 6.74. In test [2], this compound gave a pIC50 of 5.22 and a pKi of 5.73.

For the compound `CC[C@H](C)[C@H](NC(=O)[C@@H]1CCCN1C(=O)[C@H](CC(C)C)NC(C)=O)C(=O)N[C@@H](CO)C(=O)N[C@H](C(=O)N1CCC[C@H]1C(=O)N[C@@H](CC(C)C)C(=O)N(C)C)C1CCCCC1` (Ac-LPIS[Chg]PL-NMe2), in test [1], the pIC50 was 5.46 and the pKi is 6.21. Also, in test [2], the pIC50 is 4.98 and the negative logarithm of the Ki (pKi) was 5.46.

For `CC[C@H](C)[C@H](NC(=O)[C@@H]1CCCN1C(=O)[C@H](CC(C)C)NC(C)=O)C(=O)N[C@@H](CO)C(=O)N[C@H](C(=O)N1CCC[C@H]1C(=O)N[C@@H](CC(C)C)C(=O)N(C)C)C1CCCC1` (Ac-LPIS[Gly(cPent)]PL-NMe2), in test [1], the pIC50 was 5.83 and the pKi was 6.60. In addition, in test [2], the pIC50 was 5.34 and the pKi was 5.87.

In test [1], `CC[C@H](C)[C@H](NC(=O)[C@@H]1CCCN1C(=O)[C@H](CC(C)C)NC(C)=O)C(=O)N[C@@H](CN)C(=O)N[C@H](C(=O)N1CCC[C@H]1C(=O)N[C@@H](CC(C)C)C(=O)N(C)C)[C@@H](C)CC` (Ac-LPI[Dap]IPL-NMe2) gave a pIC50 of 5.92 and a pKi of 6.72. In test [2], this compound gave a pIC50 of 5.37 and a pKi of 5.91.

Take `CC[C@H](C)[C@H](NC(=O)[C@@H]1CCCN1C(=O)[C@H](CC(C)C)NC(C)=O)C(=O)N[C@@H](CN)C(=O)N[C@@H](CC1CCCC1)C(=O)N1CCC[C@H]1C(=O)N[C@@H](CC(C)C)C(=O)N(C)C` (Ac-LPI[Dap][Ala(cPent)]PL-NMe2): in test [1], the pIC50 is 6.92 and the pKi is 7.70. In test [2], this compound showed a negative-log IC50 (pIC50) of 6.41 and a negative-log Ki (pKi) of 7.05.

In test [1], `CC[C@H](C)[C@H](NC(=O)[C@@H]1CCCN1C(=O)[C@H](CC(C)C)NC(C)=O)C(=O)N[C@@H](CCCN)C(=O)N[C@H](C(=O)N1CCC[C@H]1C(=O)N[C@@H](CC(C)C)C(=O)N(C)C)[C@@H](C)CC` (Ac-LPI[Orn]IPL-NMe2) gave a pIC50 of 4.61 and a pKi of 5.37. In test [2], this compound had a pIC50 of 3.76 and a pKi of 4.22.

Consider `CC[C@H](C)[C@H](NC(=O)[C@H](CO)NC(=O)[C@H](CC(C)C)NC(=O)[C@@H]1CCCN1C(=O)[C@H](CC(C)C)NC(C)=O)C(=O)N1CCC[C@H]1C(=O)N[C@@H](CC(C)C)C(=O)N(C)C` (Ac-LPLSIPL-NMe2), for which the pIC50 in test [1] was 5.19; in test [2], 4.36. Besides, the pKi is 5.94 in test [1] and 4.82 in test [2].

Consider `CC[C@H](C)[C@H](NC(=O)[C@H](CO)NC(=O)[C@@H](NC(=O)[C@@H]1CCCN1C(=O)[C@H](CC(C)C)NC(C)=O)C(C)C)C(=O)N1CCC[C@H]1C(=O)N[C@@H](CC(C)C)C(=O)N(C)C` (Ac-LPVSIPL-NMe2), for which the pIC50 in test [1] is 5.96; in test [2] it was 5.44. Besides, the pKi in test [1] was 6.77; in test [2], 6.00.

Regarding `CCn1cc(-c2ccccc2)nc1[C@@H]1CCCN1C(=O)[C@H](CC1CCCC1)NC(=O)[C@H](CN)NC(=O)[C@@H](NC(=O)[C@@H]1CCCN1C(=O)[C@H](CC(C)C)NC(C)=O)C(C)C` (Ac-LPV[Dap][Ala(cPent)]-X1), in test [1], the pIC50 was 6.47 and the pKi is 7.30. Also, in test [2], the pIC50 is 5.80 and the pKi is 6.43.

On to `CC(=O)N[C@@H](CC(C)C)C(=O)N1CCC[C@H]1C(=O)N[C@H](C(=O)N[C@@H](CN)C(=O)N[C@@H](CC1CCCC1)C(=O)N1CCC[C@H]1c1nc(-c2ccccc2)cn1C(C)C)C(C)C` (Ac-LPV[Dap][Ala(cPent)]-X2), for which, in test [1], the pIC50 is 6.43 and the pKi is 7.24. In test [2], the pIC50 is 5.91 and the pKi was 6.54.

As for `CC(=O)N[C@@H](CC(C)C)C(=O)N1CCC[C@H]1C(=O)N[C@H](C(=O)N[C@@H](CN)C(=O)N[C@@H](CC1CCCC1)C(=O)N1CCC[C@H]1c1nc(-c2ccccc2)cn1CC1CCCCC1)C(C)C` (Ac-LPV[Dap][Ala(cPent)]-X3), the pIC50 in test [1] was 7.09; in test [2] it was 6.37. Moreover, the pKi in test [1] was 7.89; in test [2], 7.00.

In test [1], `CC(=O)N[C@@H](CC(C)C)C(=O)N1CCC[C@H]1C(=O)N[C@H](C(=O)N[C@@H](CN)C(=O)N[C@@H](CC1CCCC1)C(=O)N1CCC[C@H]1c1nc(-c2ccccc2)cn1C)C(C)C` (Ac-LPV[Dap][Ala(cPent)]-X4) gave a pIC50 of 6.43 and a pKi of 7.24. In test [2], this compound had a pIC50 of 5.75 and a pKi of 6.38.
